Experimental data reported in the NIST ThermoML archive (doi:10.1021/je300345m).

Experiment: xn = mol fraction of the nth substance listed
Settings: Liquid, Vibrating tube method

OCCNCCO [diethanolamine] + O
mass density [kg/m3]
Settings	x1 = 0.0684	x1 = 0.1025	x1 = 0.1463	x1 = 0.2045	x1 = 0.2856	x1 = 0.4067	x1 = 0.6066	x1 = 1
298.15 K, 100 kPa	1034	1047.2	1059.5	1071.4	1081	1088	1092.2	1093.6
303.15 K, 100 kPa	1031.8	1044.8	1056.9	1068.5	1077.9	1085	1088.9	1090.4
308.15 K, 100 kPa	1029.7	1042.4	1054.2	1065.6	1074.9	1081.8	1085.8	1087.1
313.15 K, 100 kPa	1027.2	1039.6	1051.3	1062.6	1071.7	1078.7	1082.7	1083.8
318.15 K, 100 kPa	1024.9	1037	1048.4	1059.5	1068.6	1075.5	1079.5	1080.6
323.15 K, 100 kPa	1022.2	1034.2	1045.4	1056.6	1065.3	1072.2	1076.2	1077.4
328.15 K, 100 kPa	1019.5	1031.4	1042.4	1053.2	1062.1	1068.9	1073	1074.1
333.15 K, 100 kPa	1016.6	1028.3	1039.2	1049.9	1058.8	1065.6	1069.6	1070.8
338.15 K, 100 kPa	1013.8	1025.2	1036	1046.5	1055.3	1062.2	1066.3	1067.4
343.15 K, 100 kPa	1010.6	1022	1032.6	1043.1	1051.8	1058.8	1062.9	1064
348.15 K, 100 kPa	1007.5	1018.8	1029.3	1039.7	1048.3	1055.3	1059.4	1060.6
353.15 K, 100 kPa	1004.2	1015.3	1025.8	1036	1044.8	1051.7	1055.9	1057.2
358.15 K, 100 kPa	1000.8	1011.9	1022.3	1032.5	1041.1	1048	1052.4	1053.7
363.15 K, 100 kPa	997.3	1008.3	1018.6	1028.7	1037.2	1044.4	1048.8	1050.1
373.15 K, 700 kPa	990.2	1000.9	1011.5	1021.2	1029.9	1037.2	1041.8	1043.3
383.15 K, 700 kPa	982.3	992.9	1003.3	1012.9	1021.7	1028.9	1033.8	1035.5
393.15 K, 700 kPa	974.2	984.7	995.1	1004.7	1013.5	1020.9	1026	1028.1
403.15 K, 700 kPa	965.8	976.3	986.7	996.2	1005.1	1012.8	1018.2	1020.5
413.15 K, 700 kPa	957.1	967.5	977.9	987.5	996.5	1004.5	1010.2	1012.9
423.15 K, 700 kPa	947.9	958.1	969	978.2	987.2	995.4	1001.7	1004.8

CN(CCO)CCO [N-methyldiethanolamine] + O
mass density [kg/m3]
Settings	x1 = 0.0609	x1 = 0.0916	x1 = 0.1313	x1 = 0.1848	x1 = 0.2608	x1 = 0.3768	x1 = 0.5764	x1 = 1
298.15 K, 100 kPa	1025.2	1035.6	1043.3	1049.7	1053.6	1052.3	1046	1036
303.15 K, 100 kPa	1022.8	1032.8	1040.9	1046.1	1049.9	1048.6	1042.3	1032.4
308.15 K, 100 kPa	1020.3	1029.9	1037.6	1042.5	1046.2	1044.8	1038.4	1028.6
313.15 K, 100 kPa	1017.7	1026.9	1034.3	1038.8	1042.4	1040.9	1034.6	1024.8
318.15 K, 100 kPa	1014.9	1023.8	1030.8	1034.7	1038.5	1037	1030.8	1021
323.15 K, 100 kPa	1012	1020.6	1027.3	1031.1	1034.6	1033.1	1026.9	1017.2
328.15 K, 100 kPa	1009	1017.2	1023.7	1027.3	1030.6	1029.1	1022.9	1013.3
333.15 K, 100 kPa	1005.9	1013.8	1020.1	1023.6	1026.6	1025	1019	1009.4
338.15 K, 100 kPa	1002.7	1010.3	1016.3	1019.8	1022.5	1020.9	1015	1005.6
343.15 K, 100 kPa	999.3	1006.7	1012.5	1015.9	1018.4	1016.8	1010.9	1001.7
348.15 K, 100 kPa	995.9	1003	1008.5	1011.9	1014.2	1012.6	1006.9	997.7
353.15 K, 100 kPa	992.3	999.2	1004.6	1007.7	1009.9	1008.4	1002.7	993.8
358.15 K, 100 kPa	988.7	995.3	1000.4	1003.5	1005.2	1004.1	998.6	989.9
363.15 K, 100 kPa	984.9	991.3	996.3	999.2	1000.9	999.8	994.4	985.9
373.15 K, 700 kPa	977.2	982.9	987.6	990.7	992	990.6	985.7	978.6
383.15 K, 700 kPa	968.8	974.1	978.5	981.4	982.6	981.4	976.9	970.3
393.15 K, 700 kPa	960.2	965.2	969.3	972.1	973.3	972.2	968.1	962.1
403.15 K, 700 kPa	951.2	955.9	959.8	962.5	963.7	962.9	959.3	953.9
413.15 K, 700 kPa	941.9	946.4	950.1	952.7	954	953.4	950.4	945.6
423.15 K, 700 kPa	931.9	936.1	939.6	942.3	943.6	943.4	940.9	937
